Assay results taken from US8354400B2, “Benzoxazole compounds and methods of use” (Eisai R&D Co., Ltd., priority 2008, dated 2013).

What was measured:
Format in all cases: cell-based
human TLR7 = target: T1, human TLR7 (Homo sapiens, UniProt Q9NYK1); experiment: HEK/TLR7 activation assay (R848 stimulation); details: HEK cells transfected with human TLR7
T1 construct: expressed in transfected cells; host or cells: HEK cell line (HEK293, as in the primary assay)
T1 sequence (Q9NYK1 27-1049): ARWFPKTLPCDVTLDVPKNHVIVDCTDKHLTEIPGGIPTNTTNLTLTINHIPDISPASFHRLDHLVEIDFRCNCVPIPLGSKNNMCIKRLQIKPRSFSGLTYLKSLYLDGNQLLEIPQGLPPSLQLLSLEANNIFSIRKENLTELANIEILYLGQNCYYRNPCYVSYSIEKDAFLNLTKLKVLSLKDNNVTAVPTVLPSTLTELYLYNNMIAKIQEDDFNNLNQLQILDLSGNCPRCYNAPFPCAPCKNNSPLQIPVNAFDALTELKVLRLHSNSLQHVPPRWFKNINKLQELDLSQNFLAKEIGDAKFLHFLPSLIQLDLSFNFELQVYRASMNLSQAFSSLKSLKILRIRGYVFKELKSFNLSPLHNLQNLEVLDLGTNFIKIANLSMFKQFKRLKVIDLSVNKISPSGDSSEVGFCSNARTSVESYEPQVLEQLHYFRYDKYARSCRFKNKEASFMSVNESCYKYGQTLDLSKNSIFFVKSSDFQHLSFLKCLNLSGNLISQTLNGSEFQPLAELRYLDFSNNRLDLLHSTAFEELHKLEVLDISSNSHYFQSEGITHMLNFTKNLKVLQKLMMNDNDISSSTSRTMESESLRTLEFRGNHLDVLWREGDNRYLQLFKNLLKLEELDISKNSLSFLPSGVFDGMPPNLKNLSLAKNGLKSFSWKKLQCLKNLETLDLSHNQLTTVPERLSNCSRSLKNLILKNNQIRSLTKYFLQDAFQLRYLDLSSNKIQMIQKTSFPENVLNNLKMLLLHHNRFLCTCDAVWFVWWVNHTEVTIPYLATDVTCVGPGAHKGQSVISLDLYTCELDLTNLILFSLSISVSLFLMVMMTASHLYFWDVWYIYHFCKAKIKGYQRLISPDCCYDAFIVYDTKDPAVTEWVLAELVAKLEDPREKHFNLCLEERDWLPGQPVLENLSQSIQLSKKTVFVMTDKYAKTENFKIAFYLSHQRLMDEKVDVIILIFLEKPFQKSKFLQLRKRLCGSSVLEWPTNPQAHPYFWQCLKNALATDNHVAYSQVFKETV
Procedure: (1) HEK/TLR7Activation Assay: The same compounds were tested in the same way as the primary assay with the following differences. The plasmid used to transfect the HEK cell line encoded for human TLR7 instead of TLR9, and R848 was used to stimulate the cells instead of Oligo CpG 2006.

[1] = system: mouse spleen IL-6 production in response to Oligo CpG 1668; experiment: Splenocyte CpG 1668 assay (IL-6 ELISA); details: mouse splenocytes, Oligo CpG 1668, 72 hrs
Procedure: (2) Splenocyte CpG 1668 Assay: Some of the compounds tested in the primary assay were also assayed for suppression of mouse spleen IL-6 production in response to stimulation with Oligo CpG 1668, a synthetic phosphorothioate oligonucleotide (Krieg et al. Nature. 374:546-9 (1995)), with nucleotide sequence [NT] (SEQ ID NO:2). Each compound was added to dissociated splenocytes before addition of stimulatory oligonucleotide. Cells were stimulated in culture for 72 hrs and the supernatant was removed for ELISA analysis of IL-6 level. Here the IC50 is defined as the concentration of compound that suppresses cytokine production to 50% of that observed in the absence of compound, i.e., full stimulation.

[2] = system: dissociated mouse splenocytes; experiment: Spleen CellTiter-Glo viability assay; details: Splenocyte, 72 hours, viability (ATP)
Procedure: (3) Spleen CT Glo Assay: To determine if compounds had adverse effects on living cells, dissociated mouse splenocytes were incubated with some of the compounds for 72 hours. At the end of the incubation Celliter-Glo™ reagent (Promega Corporation, Madison, Wis.) was added and luminescence was read per manufacturer's instructions. This reagent measures ATP as an indication of cell metabolism. Dead cells will not produce signal. IC50 is defined as the concentration of compound that suppresses viability to 50% of that observed in the absence of compound. The few compounds that measurably affected viability did so at concentrations far above those that affected cytokine release in response to TLR9 stimulation.

CN(C)CCCOc1ccc(-c2nc3ccc(OCCCN(C)C)cc3o2)cc1 [Compound 2]
IC50 (human TLR7): 2210 nM
IC50 [1]: 48 nM
IC50 [2]: > 10000 nM

CN1CCN(c2ccc(CNCCCOc3ccc(-c4nc5ccc(OCCCNCc6ccc(N7CCN(C)CC7)cc6)cc5o4)cc3)cc2)CC1 [Compound 11]
IC50 (human TLR7): 470 nM
IC50 [1]: 2 nM
IC50 [2]: 10000 nM

CCN(CC)CCNCCCOc1ccc(-c2nc3ccc(OCCCNCCN(CC)CC)cc3o2)cc1 [Compound 12]
IC50 (human TLR7): 780 nM
IC50 [1]: 4 nM
IC50 [2]: > 10000 nM

c1cc(CN2CCOCC2)ccc1CNCCCOc1ccc(-c2nc3ccc(OCCCNCc4ccc(CN5CCOCC5)cc4)cc3o2)cc1 [Compound 13]
IC50 (human TLR7): 460 nM
IC50 [1]: 3 nM
IC50 [2]: 7070 nM

CN1CCCN(CCCOc2ccc(-c3nc4ccc(OCCCN5CCCN(C)CC5)cc4o3)cc2)CC1 [Compound 14]
IC50 (human TLR7): 620 nM
IC50 [1]: 4 nM
IC50 [2]: > 10000 nM

CN(C)[C@@H]1CCN(CCCOc2ccc(-c3nc4ccc(OCCCN5CC[C@@H](N(C)C)C5)cc4o3)cc2)C1 [Compound 16]
IC50 (human TLR7): 430 nM
IC50 [1]: 8 nM
IC50 [2]: > 10000 nM

c1cc(-c2nc3ccc(OCCCN4CCC(N5CCCC5)CC4)cc3o2)ccc1OCCCN1CCC(N2CCCC2)CC1 [Compound 20]
IC50 (human TLR7): 1820 nM
IC50 [1]: 6 nM
IC50 [2]: > 10000 nM

CN(C)CCN(C)CCCOc1ccc(-c2nc3ccc(OCCCN(C)CCN(C)C)cc3o2)cc1 [Compound 22]
IC50 (human TLR7): 500 nM
IC50 [1]: 10 nM
IC50 [2]: 7110 nM

c1cc(-c2nc3ccc(OCCCN4CCCC4)cc3o2)ccc1OCCCN1CCCC1 [Compound 23]
IC50 (human TLR7): 1550 nM
IC50 [1]: 18 nM
IC50 [2]: > 10000 nM

CN(C)CCCN(C)CCCOc1ccc(-c2nc3ccc(OCCCN(C)CCCN(C)C)cc3o2)cc1 [Compound 27]
IC50 (human TLR7): 980 nM
IC50 [1]: 4 nM
IC50 [2]: 8960 nM

c1cc(-c2nc3ccc(OCCCN4CCCCC4)cc3o2)ccc1OCCCN1CCCCC1 [Compound 30]
IC50 (human TLR7): 1140 nM
IC50 [1]: 25 nM
IC50 [2]: > 10000 nM

CCN(CC)CCN(C)CCCOc1ccc(-c2nc3ccc(OCCCN(C)CCN(CC)CC)cc3o2)cc1 [Compound 31]
IC50 (human TLR7): 440 nM
IC50 [1]: 6 nM
IC50 [2]: > 10000 nM
